{
  "source": "paper PMC4007625",
  "about": "“A phase I study of AST1306, a novel irreversible EGFR and HER2 kinase inhibitor, in patients with advanced solid tumors” (Journal of Hematology & Oncology, 2014)",
  "origin": "cited, not measured here",
  "tested_on": "advanced/metastatic gastric cancer",
  "design": "method as in PMID 21415234",
  "details": "single agent, advanced/metastatic gastric cancer patients; cited from earlier work",
  "data": [
    {"smiles": "CS(=O)(=O)CCNCc1ccc(-c2ccc3ncnc(Nc4ccc(OCc5cccc(F)c5)c(Cl)c4)c3c2)o1", "note": "[lapatinib]", "values": [
      {"measurement": "response rate", "value": 9, "unit": "%"}
    ]}
  ]
}
